The record followed here is patent publication US9260382B2, “Methods of reducing virulence in bacteria” (priority 2010, dated 2016).

One experiment has as its system hrpA promoter (T3SS). The experiment can be described thus: hrpA promoter activity assay in DC3000 (GFP, flow cytometry). In kind it is cell-based, Pseudomonas syringae pv. tomato DC3000. As to conditions: DC3000 (phrpA). The method, then:
Expression of hrpA was analyzed using a FACS Calibur flow cytometer as previously described (BD Biosciences, CA) (Peng et al. 2006). Wild-type DC3000 carrying the promoter-probe phrpA or pPROBE-NT (vector control) was grown in KB broth overnight and transferred to HIM or HIM supplemented with different compounds as described (Li et al. 2009). The promoter activity of hrpA in DC3000 was monitored by measuring GFP intensity using flow cytometry.
(§1) To determine the maximum concentration of TCA that will inhibit hrpA promoter activity without affecting bacterial growth, DC3000 carrying phrpA was cultured in HIM and HIM supplemented with 25 μM, 50 μM, 100 μM, 250 μM, or 500 μM of TCA. Promoter activity was measured at 6 h and 9 h as mentioned above using flow cytometry. Bacterial growth was determined by withdrawing samples of each culture and spot-plating serial dilutions onto King's B agar (King et al. 1954) in tandem with promoter activity assays. Colonies were counted after 48 h of incubation at 28° C.

Experiment [1] relates to Pseudomonas syringae pv. tomato DC3000. In words: DC3000 bacterial growth, colony counts. In kind it is cell-based. The note with it: 6 h and 9 h. The method, then: as §1
For experiment [2], the system named is Pseudomonas syringae pv. tomato DC3000 (HR elicitation). In words: Hypersensitive response (HR) assay in tobacco leaves. The format is in vivo. As to conditions: Nicotiana tabacum cv. Xanthi, 18 hours post-infiltration. The method, then:
Bacterial cells from overnight cultures grown in KB broth were resuspended in sterile dH2O. Cell suspensions were mixed with chemicals and allowed to sit for 30 minutes before plant inoculation. Nicotiana tabacum cv. Xanthi plants were used for HR assays. Tobacco leaves were pressure infiltrated by use of a needless syringe (Fu et al. 2006) with 1×10^8 cells/ml and 25 μM, 50 μM, 100 μM, 250 μM, or 500 μM TCA. Plants were photographed and assessed for macroscopic tissue collapse indicative of HR 18 h post-inoculation.
In DC3000, mutations in genes which encode components of the T3SS result in the inability to elicit HR in non-hosts (Collmer et al. 2000). Since TCA represses expression of hrpA (a major component of the T3SS) in vitro, the ability of TCA to suppress HR in planta was examined. DC3000 (OD600=0.1) with 25 μM, 50 μM, 100 μM, 250 μM, or 500 μM of TCA in DMSO was injected into leaves of tobacco (Nicotiana tabacum cv. Xanthi). Concentrations of DMSO which correspond to similar amounts of TCA were also injected into the tobacco plants as negative controls. Tobacco leaves were assessed for HR symptoms 18 hours post-infiltration. No visible signs of tissue damage or HR were observed when DMSO or TCA was separately infiltrated into the tobacco leaves (data not shown). […] This effect is most likely due to lack of a functional T3SS.

Another experiment relates to HrpW protein. In words: HrpW immunoblot analysis. In kind it is cell-based, Pseudomonas syringae pv. tomato DC3000. The note with it: HIM supplemented with 250 μM. As to the method:
The HrpW protein level was determined by immunoblot using anti-HrpW antibody provided by Dr. Alan Collmer (Cornell University, Ithaca, N.Y.). Sample preparation was performed as previously described with modifications (Yuan and He 1996). Wild-type DC3000 was grown overnight in King's B medium at 28° C. The culture was washed with hrp-inducing medium (HIM) and resuspended in 40 ml of the same medium to an optical density (OD) at 600 nm of 0.1. To determine the effect of TCA on the HrpW protein level, TCA dissolved in DMSO was added to the culture at the final concentration of 250 μM and the culture was grown with moderate shaking at 28° C. DMSO was added to a separate culture as a negative control. After 9 h, the cells were collected by centrifugation at 4,000×g for 10 min and resuspended in 1 ml of phosphate buffered saline (PBS; 137 mM NaCl, 2.7 mM KCl, 4.3 mM Na2HPO4, and 1.47 mM KH2PO4 [pH 7.4]). […]
A general note: A western blot detects proteins with antibodies after separation by electrophoresis.

The next experiment relates to hrpS mRNA. The experiment can be described thus: qRT-PCR relative mRNA level of hrpS. The format is cell-based, Dickeya dadantii 3937. The note with it: 0.1 mM in MM. The method, then: (§2) Bacterial strains were grown in MM. Total RNA from the bacterial cells was isolated by using the TRI reagent method (Sigma, Mo.) and treated with Turbo DNA-free DNase kits (Ambion, Tex.) as described (Peng et al., 2006). An iScript cDNA Synthesis Kit (Bio-Rad, CA) was used to synthesize cDNA from 0.5 μg of treated total RNA. The Real Master Mix (Eppendorf, Westbury, N.Y.) was used for qRT-PCR reaction to quantify the cDNA level of target genes in different samples. The rplU was used as the endogenous control for data analysis. qRT-PCR data were analyzed using Relative Expression Software Tool as described (Pfaffl, M. W., Horgan, G. W., and Dempfle, L. (2002) Relative expression software tool (REST) for group-wise comparison and statistical analysis of relative expression results in real-time PCR. Nucleic Acids Res 30:e36.).
On the technique in general: Quantitative PCR measures a nucleic acid by following its amplification.

Another experiment relates to hrpY mRNA. In words: qRT-PCR relative mRNA level of hrpY. As to conditions: 0.1 mM in MM. The format is cell-based, Dickeya dadantii 3937. The method, then: as §2
A further experiment deals with hrpL mRNA. In words: qRT-PCR relative mRNA level of hrpL. The format is cell-based, Dickeya dadantii 3937. The note with it: MM supplemented with 0.1 mM. The method, then:
as §2

The test system of the next experiment is rsmB RNA. In words: Northern blot analysis of rsmB RNA. The format is cell-based, D. dadanti 3937. The note with it: bacterial cells cultured in media supplemented with compound (FIG. 23). The text has this:
Northern blot analysis was used to quantify rsmB RNA of D. dadanti 3937.

`O=C(O)/C=C/c1ccccc1` [Compound 001, trans-cinnamic acid]: the “effect on hrpA promoter activity, in words” value was “less substantial effect” in the experiment on hrpA promoter (T3SS) (HIM + 25 μM or 50 μM); “almost complete repression of hrpA promoter activity” in the experiment on hrpA promoter (T3SS) (HIM + 250 μM and 500 μM). In addition, the “reduction in hrpA promoter activity” value in the experiment with hrpA promoter (T3SS) (HIM + 100 μM) stood at 3 fold. Also, the “colony counts of DC3000 vs control culture, in words” value in experiment [1] (HIM + 500 μM) is recorded as “slightly lower”. The “effect on growth of DC3000, in words” value in experiment [1] (HIM, at or below concentrations of 250 μM) was “does not significantly inhibit nor enhance growth”. Also, the “elicitation of HR by DC3000 in tobacco leaves, in words” value in experiment [2] (infiltrated with 100 μM) is given as “unable to completely block HR”; in experiment [2] (infiltrated with 250 μM) it was “completely suppressed”. The “HrpW protein in culture supernatants, immunoblot, in words” value in the experiment on HrpW protein was “absent from the culture supernatants”. For the same compound, in the experiment with HrpW protein, the “HrpW protein in whole cell lysates, immunoblot, in words” value is given as “undetectable in the whole cell lysates”.

In the case of `O=C(O)/C=C/c1ccccc1O` [Compound 006, Ortho-coumaric acid], the “hrpS mRNA compared with MM alone, in words” value in the experiment with hrpS mRNA is reported as “No significant difference”. In the experiment with hrpY mRNA, the “hrpY mRNA compared with MM alone, in words” value is recorded as “No significant difference”.

Regarding `O=C(O)/C=C/c1ccc(O)cc1` [Compound 004, para-coumaric acid], in the experiment with hrpL mRNA, the “hrpL mRNA relative expression ratio (MM alone normalized to 1)” value is listed as 0.039.

For `O=C(/C=C/c1ccc(O)cc1)NO` [Compound 103, trans-4-Hydroxycinnamohydroxamic acid], the “rsmB RNA level, Northern blot, in words” value in the experiment with rsmB RNA is “reduced rsmB mRNA”.
